US20150023883A1, “Antiperspirant Spray Devices and Compositions” (The Procter & Gamble Company, priority 2013, published 2015)

Source text: (§1) Solubility may be determined by measuring the amount of light transmittance (a light transmittance value) through a simple mixture of the non-volatile silicone fluid and liquid activation enhancer at the same weight/weight concentrations as in a final antiperspirant composition.
as §1, with “Solubility of a liquid activation enhancer in a non-volatile silicone” for “Solubility”, “(light” for “(a light”
The Spectronic Genesys 10 Vis utilizes a tungsten-halogen light source and has a spectral bandwidth of 5 nm, a wavelength range of 325 to 1100 nm, accuracy of ±1 nm and a repeatability of ±0.5 nm. Readouts include absorbance, transmittance and concentration. The spectrophotometer is set to 640 nm wavelength and the percent transmittance mode/readout. Polystyrene spectrometer cuvettes having a 1 cm optical light path and transmittance between ˜340 nm and ˜900 nm are used. One suitable example of a spectrometer cuvette is available from VWR International LLC under Catalog #97000-584 having a 2.5 to 4.5 ml capacity. The spectrophotometer is calibrated according to the manufacturer's instructions using a reference cuvette and composition comprised of just the non-volatile silicone fluid of interest. For example, if the test composition comprises 50 centistoke dimethicone and 15% w/w of isopropyl myristate, then the spectrometer is calibrated using a cuvette containing just 50 centistoke dimethicone. Sample cuvettes are filled sufficiently with a test composition of a non-volatile silicone fluid and liquid activation enhancer so that the light path of the spectrophotometer passes through the test composition in the cuvette. The sample cuvettes are shaken well just prior to taking a light transmittance reading.
For `CCCCCCCCCCCCCCCCCC(=O)OCCCC` [butyl stearate], the light transmittance value was “about 100%”. In the case of `CCCCCCCCCCCCCC(C)C` [isohexadecane], the light transmittance value is reported as “about 100%” and the “solubility in 50 centistoke dimethicone” value is reported as “soluble”. With `CCCCCCCCCCCCCC(=O)OC(C)C` [isopropyl myristate] the light transmittance value was “about 101%”. With `CCCCCCCCCCCCCCCC(=O)OC(C)C` [isopropyl palmitate] the light transmittance value was “about 101%”. With `CCCCCCCCCCC(CO)CCCCCCCC` (centres unmarked) [octyldodecanol] the “solubility in 50 centistoke dimethicone” value was “soluble in the 50 centistoke dimethicone at some (lower) concentrations”. In the case of PPG-14 butyl ether, the “solubility in 50 centistoke dimethicone” value is reported as “insoluble”. For mineral oil, the “solubility in 50 centistoke dimethicone” value was “soluble in 50 centistoke dimethicone at some (lower) concentrations”.
